# Source: ChEMBL document CHEMBL1201862, “PubChem BioAssay data set” (2004)
# Calls of active or inactive are those of the source. Cut-off read from the data, not from the text of the source: actives have a measured IC50 and inactives only a lower limit.
# Target: Envelope glycoprotein gp160 (Human immunodeficiency virus 1, UniProt Q6QLK5)
# Assay: cell-free HIV fusion peptide-binding blockers – biochemical, uHTS, fluorescence dequenching, […] (AID 1986)
# Chain of Envelope glycoprotein gp160 (Q6QLK5 whole entry, the tested form may be a part): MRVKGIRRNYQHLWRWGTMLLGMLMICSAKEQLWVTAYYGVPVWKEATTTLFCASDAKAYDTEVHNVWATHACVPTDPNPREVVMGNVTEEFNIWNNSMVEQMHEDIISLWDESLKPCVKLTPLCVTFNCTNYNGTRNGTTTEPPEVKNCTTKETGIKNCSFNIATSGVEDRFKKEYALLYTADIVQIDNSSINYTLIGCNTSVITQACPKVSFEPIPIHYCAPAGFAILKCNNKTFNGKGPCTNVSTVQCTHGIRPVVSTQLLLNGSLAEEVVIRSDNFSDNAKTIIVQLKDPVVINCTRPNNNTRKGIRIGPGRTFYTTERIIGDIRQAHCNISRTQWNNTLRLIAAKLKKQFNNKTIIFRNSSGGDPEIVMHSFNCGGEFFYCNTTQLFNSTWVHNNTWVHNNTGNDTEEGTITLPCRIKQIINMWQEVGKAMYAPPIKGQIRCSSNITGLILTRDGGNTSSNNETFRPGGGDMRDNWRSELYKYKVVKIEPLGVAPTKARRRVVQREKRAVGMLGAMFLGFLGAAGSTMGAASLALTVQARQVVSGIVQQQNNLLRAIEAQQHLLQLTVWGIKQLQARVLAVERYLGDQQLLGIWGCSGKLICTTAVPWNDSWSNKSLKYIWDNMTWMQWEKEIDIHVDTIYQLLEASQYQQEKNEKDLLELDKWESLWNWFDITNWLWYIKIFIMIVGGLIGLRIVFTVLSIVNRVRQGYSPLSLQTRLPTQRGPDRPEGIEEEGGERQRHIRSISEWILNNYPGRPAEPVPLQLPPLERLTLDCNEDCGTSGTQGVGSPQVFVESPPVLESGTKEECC
row,Compound,IC50
1,Cc1oc2c(cc(NS(=O)(=O)c3ccc(C(C)C)cc3)c3ccccc32)c1C(=O)O,14.8 µM (active)
2,N#Cc1c(SCC(=O)Nc2nc3ccc(Br)cc3s2)sc2c(O)cc(=O)[nH]c12,11 µM (active)
3,O=C(CCN1C(=O)/C(=C/c2cccs2)SC1=S)Nc1ccc(C(=O)O)c(O)c1,11.6 µM (active)
4,COc1cccc(OCCOc2ccc(/C=C3\C(=N)N4N=C(S(C)(=O)=O)SC4=NC3=O)cc2OC)c1,43.8 µM (active)
5,O=C(O)c1cc(-c2ccc(/C=N/Nc3ccc(Cl)cc3)o2)ccc1Cl,24.1 µM (active)
